Data published in patent US20050239738A1, “Genetic inhibition of epidermal growth factor receptor function and carcinoma cell radiosensitization” (priority 2000, published 2005).
In brackets after ≈: the same amount, converted by molar mass.

Columns and labels:
Format in all cases: cell-based, human
[1] = tested on: EGFR-WT; experiment: EGFR-WT Tyr autophosphorylation, immunoprecipitation/Western blot; conditions: 2 ng/ml EGF, MDA-TR15-EGFR-CD533 cells without Dox
Description: (§1) Dox at 1 μg/ml was added 48 h prior to radiation exposure and cell harvesting with a medium change to RPMI/0.5% FBS with or without Dox for the final 24 h. This medium was replaced by RPMI/0.5% FBS 2 h prior to treatment.

[2] = tested on: EGFR-CD533 expression; experiment: Doxycycline induction of EGFR-CD533 mRNA and protein (RNase protection, Northern, 35S-Met labeling)
Excerpt: The kinetics of EGFR-CD533 induction and its decay after Dox removal were monitored by metabolic labeling with ^35S-Met as described in the text.

[3] = tested on: JNK1; experiment: JNK1 immune complex kinase assay
Description: (§2) Immunoprecipitation and Western analysis. For immunochemical analyses, cells frozen at −20° C. were lysed in ice-cold lysis buffer, 25 mM β-glycerophosphate, pH 7.4, 25 mM Tris, pH 7.4, 10% (v/v) glycerol, 1.5 mM EGTA, 0.5 mM EDTA, 1% Triton X-100, 1 mM Na-orthovanadate, 1 mM Na-pyrophosphate, 10 μg/ml aprotinin, 10 μg/ml leupeptin, 1 μm benzamidine, 100 μg/ml PMSF. […] Lysates were incubated with Ab at 4° C. for 3 h, the agarose-Ab immunoprecipitates were washed twice in lysis buffer, once in lysis buffer containing 0.1% Triton X-100, and once in 1× kinase buffer, 25 mM β-glycerophosphate, pH 7.4, 15 mm MgCl2. For Western blot analyses, equal amounts of cellular protein were separated by SDS-PAGE, electroblotted to nitrocellulose, probed with specific Abs against c-Jun protein and c-Jun 0phosphorylated at Ser-63, followed by chemilumescence detection. Expression of Tam 67 in MDA-TR15-EGFR-CD533 cells infected with recombinant adenovirus was determined by Western analysis using a c-Jun Ab specific for the COOH-terminus.
(§3) Immune complex kinase assays.
(§4) Aliquots of the assay mixture were placed on P81 paper and non-specific binding of [^32P]-γ-ATP removed by extensive washing in 180 mM phosphoric acid. Incorporation of ^32P into bound MBP substrate was measured by liquid scintillation spectroscopy (Beckman Instruments Inc, Schaumburg, Ill., USA).

[4] = tested on: MAPK; experiment: MAPK immune complex kinase assay
Description: as §1, §2, §3, §4

[5] = tested on: MDA-TR15-EGFR-CD533 cells; experiment: Repeated radiation exposure (5 x 2 Gy) MTT cell growth assay
Description: MDA-TR15-EGFR-CD533 cells were seeded in RPMI/5% FBS at 1000 or 2000 cells/well in 96-well tissue culture plates for control and radiation experiments, respectively. After cell attachment overnight, 50% of the cultures were exposed to Dox at 1 μg/ml. Within 24 h of Dox exposure, drug-exposed and control cultures were irradiated once-daily with 2 Gy for 5 consecutive days.
Growth rate analysis. For irradiation and control conditions, 1000 and 500 cells per well of 24-well plates were seeded, respectively. Cells were maintained in RPMI/5FCS without media change throughout the period of the experiment. After 24 h of seeding, 50% of the plates were treated with 10 μM PD98059 for 2 h while negative controls were exposed to equivalent DMSO concentrations of 1 μl/ml in RPMI/5FCS. This was followed by 2 Gy daily radiation exposures for 5 consecutive days; control cells were sham irradiated. […] Growth rates were quantified relative to absorbance at 540 nm on day 1.

[6] = tested on: c-Jun; experiment: Western blot of c-Jun protein and Ser-63 phosphorylated c-Jun
Description: Immunoprecipitation and Western analysis. For immunochemical analyses, cells frozen at −20° C. were lysed in ice-cold lysis buffer, 25 mM β-glycerophosphate, pH 7.4, 25 mM Tris, pH 7.4, 10% (v/v) glycerol, 1.5 mM EGTA, 0.5 mM EDTA, 1% Triton X-100, 1 mM Na-orthovanadate, 1 mM Na-pyrophosphate, 10 μg/ml aprotinin, 10 μg/ml leupeptin, 1 μm benzamidine, 100 μg/ml PMSF. Insoluble material was removed by centrifugation at 14 000 g for 10 min, and the clarified protein lysates were divided equally for immunoprecipitation with antibodies against JNKI and MAPK using established techniques (Boulton et al., 1990). Lysates were incubated with Ab at 4° C. for 3 h, the agarose-Ab immunoprecipitates were washed twice in lysis buffer, once in lysis buffer containing 0.1% Triton X-100, and once in 1× kinase buffer, 25 mM β-glycerophosphate, pH 7.4, 15 mm MgCl2. For Western blot analyses, equal amounts of cellular protein were separated by SDS-PAGE, electroblotted to nitrocellulose, probed with specific Abs against c-Jun protein and c-Jun 0phosphorylated at Ser-63, followed by chemilumescence detection. Expression of Tam 67 in MDA-TR15-EGFR-CD533 cells infected with recombinant adenovirus was determined by Western analysis using a c-Jun Ab specific for the COOH-terminus.

[7] = tested on: MDA-TR15-EGFR-CD533 cells; experiment: TUNEL assay for apoptosis
Description: TUNEL assay for apoptosis. Cells were placed at a density of 2×10^4 cells into dual well slides and allowed to adhere overnight in RPMI/5FCS. Cells were then exposed, prior to irradiation, for 48 h to Dox or control solute for induction of EGFR-CD533. PD98059 at a final concentration of 10 μM was added 2 h prior to irradiation at 2 Gy. Cells were infected with recombinant Ad-TAM67 for expression of Tam67 for 48 h prior to irradiation. […] Slides were stored at −20° C. until examination by fluorescence microscopy using a fluorescein filter.

[8] = MCF-TR5-EGFR-CD533 cells, 48 h Dox exposure
[9] = MDA-TR15-EGFR-CD533 cells, 48 h Dox exposure
[10] = parental MDA-TR15 cells, Dox 48 h
[11] = MDA-TR15-EGFR-CD533 cells, basal activity before irradiation, after pretreatment

## EGF: epidermal growth factor, natural ligand of EGFR
[1]
  activation of EGFR-WT Tyr phosphorylation: 9.8 fold

## C[C@H]1c2cccc(O)c2C(=O)C2=C(O)[C@]3(O)C(=O)C(C(N)=O)=C(O)[C@@H](N(C)C)[C@@H]3[C@@H](O)[C@@H]21 [Dox, doxycycline]
[2]; 1.0 μg/ml Dox, at 24 h, 35S-Met incorporation, MDA-TR15-EGFR-CD533 cells
  EGFR-CD533 induced: > 90%
[2]; Homo sapiens, MDA-TR15-EGFR-CD533 cells, 48 h exposure, 0.01-1.0 μg/ml, read-out: Dox concentration giving half maximal response of EGFR-CD533 induction
  EC50: 0.1 µg/mL (≈ 0.225 µM)
[2]; [8]
  increase in EGFR-CD533 mRNA levels: 5 fold
  induction of the 110 kD EGFR-CD533 truncated receptor: greater than 20 fold
[2]; [9]
  increase in EGFR-CD533 mRNA levels: greater than 30 fold
  induction of EGFR-CD533 at the protein level: greater than 50 fold
[3]; [10]
  JNK1 activity at time=0: 3500±300 c.p.m.
[4]; [10]
  MAPK activity: 16000±1600 c.p.m.

## COc1cccc(-c2cc(=O)c3ccccc3o2)c1N [PD98059]
[5]; 5 daily 2 Gy exposures, MTT, day 7 of growth period
  lower cell numbers on day 7 relative to irradiated control cells: 5.0 (±0.03) fold
[5]; un-irradiated, day 7, MTT
  inhibition of cell growth / decrease in cell numbers without irradiation: 25%
[6]; 10 μM PD98059 2 h
  c-Jun protein levels relative to untreated cells: more than twofold reduction
[6]; 10 μM PD98059 pretreatment, 10 min after 2 Gy
  increase in c-Jun Ser-63 phosphorylation relative to c-Jun protein level: 41 fold
[6]; PD98059 + 2 Gy, sustained up to 60 min
  stimulation of c-Jun phosphorylation under MEK1/2 inhibition compared to radiation alone: fivefold greater
[7]; TUNEL 24 h after single 2 Gy
  apoptosis rate after irradiation: 6.3 (±0.1) %
[7]; TUNEL, without irradiation
  basal apoptosis rate: 3.7 (±0.1) %
[7]; TUNEL, without irradiation, relative to control
  increase in basal apoptosis rate: ~20%
[3]; 10 μM PD98059, between 5 and 25 min, no radiation
  transient activation of JNK1 without irradiation: 1.35 (±0.02) fold
[3]; 2 Gy, early time points (within 10 min), MDA-TR15-EGFR-CD533 cells
  radiation-induced immediate JNK1 activation: 3.9 (±0.1) fold
[3]; [11]
  JNK1 activity at time=0: 3100±200 c.p.m.
[4]; 10 μm PD98059 pretreatment, 2 Gy, MDA-TR15-EGFR-CD533 cells
  inhibition of radiation-induced MAPK activation: > 70%
[4]; [11]
  MAPK activity at time=0: 16900±575 c.p.m.
